Results from patent publication US6548515B1, “Dihydrofuro[3,4-b]quinolin-1-one compounds” (Les Laboratories Servier, priority 1999, dated 2003).

Tests used:
[1] = tested on: murine leukaemia, L1210; assay: Cytotoxicity in vitro (Microculture Tetrazolium Assay), L1210; type: cell-based; conditions: Mus musculus, 48 h; L1210 cells, incubated 2 days, inhibition of proliferation by 50%
Procedure: (§1) Three cell lines are used:
1 murine leukaemia, L1210,
(§2) The cells are cultured in complete RPMI 1640 culture medium containing 10% foetal calf serum, 2 mM glutamine, 50 units/ml of penicillin, 50 μg/ml of streptomycin and 10 mM Hepes, pH=7.4. The cells are distributed in microplates and exposed to the cytotoxic compounds. The cells are then incubated for 2 days (L1210) or 4 days (A549, HT29). The number of viable cells is then quantified by means of a calorimetric assay, the Microculture Tetrazolium Assay (Cancer Res. 1987, 47, 939-942).
(§3) The results are expressed as IC50, the concentration of cytotoxic agent that inhibits the proliferation of the treated cells by 50%.

[2] = tested on: human colon carcinoma, HT29; assay: Cytotoxicity in vitro (Microculture Tetrazolium Assay), HT29; type: cell-based; conditions: HT-29, 96 h, HT29 cells, incubated 4 days, inhibition of proliferation by 50%
Procedure: as §1
1 human colon carcinoma, HT29
as §2, §3

[3] = tested on: human non-small-cell lung carcinoma, A549; assay: Cytotoxicity in vitro (Microculture Tetrazolium Assay), A549; type: cell-based; conditions: 96 h, A549 cells, incubated 4 days, inhibition of proliferation by 50%
Procedure: as §1
1 human non-small-cell lung carcinoma, A549,
as §2, §3

[4] = tested on: P388 (murine leukaemia); assay: In vivo anti-tumour activity on P388 leukaemia; set-up: species or system female BDF1 mice; conditions: P388 i.p. in BDF1 mice, intraperitoneal route on day 1, active from the 50 mg/kg dose
Procedure: Line P388 (murine leukaemia) was supplied by the National Cancer Institute (Frederick, USA). The tumour cells (10^6 cells) were inoculated on day 0 into the peritoneal cavity of female BDF1 mice (Iffa-Credo, France) weighing from 18 to 20 g (groups of 6 animals). The products were administered by the intraperitoneal route on day 1 (D1).
The anti-tumour activity is expressed as % T/C: [formula]

Row | Compound | IC50 [1] | IC50 [2] | IC50 [3] | T/C (survival of the treated animals) [4]
1 | COc1cc(CN2C3=C(C(=O)OC3)C(c3cc(OC)c(OC)c(OC)c3)c3cc4c(cc32)OCO4)cc(OC)c1O (racemic) [Example 8, (±)-4-(3,5-Dimethoxy-4-hydroxybenzyl)-6,7-methylenedioxy-9-(3,4,5-trimethoxyphenyl)-4,9-dihydrofuro[3,4-b]quinolin-1(3H)-one] | 62 nM | 153 nM | 147 nM | 
2 | COc1cc(C2C3=C(COC3=O)Nc3cc4c(cc32)OCO4)cc(OC)c1OC (racemic) [Example 10, (±)-6,7-Methylenedioxy-9-(3,4,5-trimethoxyphenyl)-4,9-dihydrofuro[3,4-b]quinolin-1(3H)-one] | 12 nM | 18 nM | 22 nM | 
3 | COc1cc(C2C3=C(COC3=O)N(C)c3cc4c(cc32)OCO4)cc(OC)c1OC (racemic) [Example 1, (±)-4-Methyl-6,7-methylenedioxy-9-(3,4,5-trimethoxyphenyl)-4,9-dihydrofuro[3,4-b]quinolin-1(3H)-one] | 53 nM | 104 nM | 102 nM | ≥ 200%
